Source: publication PMC7459823, “Characterization of Five Novel Anti-MRSA Compounds Identified Using a Whole-Animal Caenorhabditis elegans/Galleria mellonella Sequential-Screening Approach” (Antibiotics, 2020)
Values after ≈ are worked out from the molar mass of the structure shown. Where two headings read alike, the source gives them in different places.

Key:
[1] = test system: clinical S. aureus isolate BF4; assay: Broth microdilution MIC, clinical S. aureus isolate BF4; assay type: cell-based; conditions: Staphylococcus aureus; BF4; read-out: MIC
Procedure: (§1) In vitro antibacterial activities were determined using the broth microdilution method. Assays were performed as described in Clinical and Laboratory Standards Institute protocols in triplicate using cation-adjusted Muller–Hinton broth (Becton Dickinson and Company, Franklin Lakes, NJ, USA) in 96-well plates with a total assay volume of 100 µL. Two-fold serial dilutions of test compounds were prepared over the concentration range of 1–64 µg/mL. The bacterial concentration was adjusted to OD600 = 0.06. […] A 10 µL aliquot from each well in the MIC assays was plated onto Muller–Hinton agar (Becton Dickinson and Company, Franklin Lakes, NJ, USA) and incubated overnight at 37 °C. The lowest concentration of compound for which no growth was observed on agar plates was reported as the minimal bactericidal concentration (MBC).

MRSA MW2 [2] = assay: Broth microdilution antibacterial susceptibility (MIC/MBC), MRSA MW2; assay type: cell-based, Staphylococcus aureus; conditions: for MBC: MRSA MW2
Procedure: as §1

MRSA MW2 [3] = assay: Time-to-kill assay; assay type: cell-based, Staphylococcus aureus; conditions: MRSA MW2, compounds at 64 µg/mL, 4 hr; criteria MBC/MIC and 3 log10 CFU decrease
Excerpt: Time-to-kill assays were used to further probe bactericidal/bacteriostatic properties against MRSA MW2 (Figure 3). Antibacterial compounds are generally considered bactericidal, if the MBC is no more than four times higher than the MIC. Bactericidal activity is defined as greater than 3 log10 -fold decrease in colony forming units, which is equivalent to 99.9% killing of the inoculum. If the MBC is outside this range, compounds are bacteriostatic. According to these criteria, all five compounds were bacteriostatic.
Time-to-kill assays were performed as previously described. Briefly, overnight cultures of MRSA-MW2 were diluted in fresh Tryptic Soy Broth (TSB) to a density of 10^8 cells/mL and placed into 10 mL tubes (Becton Dickinson and Company, Franklin Lakes, NJ, USA). Test compounds dissolved in DMSO over the concentration range 4–64 µg/mL were added and the tubes incubated at 37 °C. At periodic intervals, aliquots from each tube were serially diluted with TSB and plated onto tryptic soy agar (TSA) (Becton Dickinson and Company, Franklin Lakes, NJ, USA). CFUs were enumerated after overnight incubation at 37 °C. Assays were carried out in triplicate.

Enterococcus faecium = assay: Broth microdilution MIC, Enterococcus faecium; assay type: cell-based; conditions: read-out: MIC
Procedure: as §1

Acinetobacter baumannii = assay: Broth microdilution MIC, Acinetobacter baumannii; assay type: cell-based; conditions: read-out: MIC
Procedure: as §1

Pseudomonas aeruginosa = assay: Broth microdilution MIC, Pseudomonas aeruginosa; assay type: cell-based; conditions: read-out: MIC
Procedure: as §1

[4] = test system: MRSA MW2 infection of Galleria mellonella larvae; assay: G. mellonella–MRSA survival assay; assay type: in vivo; conditions: larvae infected with MRSA MW2 5 × 10^5 CFU, compound 10 mg/kg 2 h after infection, monitored 120 h; untreated 1 day
Procedure: Larvae were infected with MRSA MW2 (5 × 10^5 CFU) in the left rear proleg, and after two hours, the compounds were introduced separately at 10 mg/kg into the right rear proleg and larvae survival was monitored for 120 h.
Assays were performed as described previously. Briefly, sixteen randomly selected G. mellonella larvae (Vanderhorst, Inc., St. Mary’s, OH, USA) between 300–350 mg were used for each test group. MRSA-MW2 was grown in Tryptic Soy Broth (TSB), washed with phosphate buffered saline (PBS, pH = 7.4), and diluted to OD600 = 0.3 before inoculation into G. mellonella larvae. A 10-μL inoculum was injected into the last left proleg using a 10-μL Hamilton syringe. After 2 h, compounds were administered into the last right proleg and larvae were incubated at 37 °C. G.mellonella survival was monitored for 120 h, and death was confirmed when there was no response. Killing curves and differences in survival were analyzed by the Kaplan–Meier method using GraphPad Prism version 8 (GraphPad Software, La Jolla, CA, USA). Statistical analysis (Kruskal–Wallis test) was carried out using the same program.

Klebsiella pneumoniae = assay: Broth microdilution MIC, Klebsiella pneumoniae; assay type: cell-based; conditions: read-out: MIC
Procedure: as §1

[5] = test system: clinical S. aureus isolate BF1; assay: Broth microdilution MIC, clinical S. aureus isolate BF1; assay type: cell-based; conditions: Staphylococcus aureus; BF1; read-out: MIC
Procedure: as §1

MKN-28 = conditions: human, 24 h
Procedure: (§2) Mammalian cell lines HepG2 (hepatic cells), A549 (epithelial cells), and MKN-28 (gastric cells) were used to measure the anti-proliferative properties of test compounds, as described elsewhere [28]. Cells were grown in Dulbecco’s Modified Eagle Medium (DMEM) (Gibco, Waltham, MA, USA) supplemented with 10% Fetal Bovine Serum (FBS) (Gibco, Waltham, MA, USA) and 1% penicillin/streptomycin (Gibco, Waltham, MA, USA) and maintained at 37 °C in 5% CO2. After harvesting, the cells were suspended in DMEM and 100 µL was added to the wells of 96-well plates. The test compounds were serially diluted in serum and antibiotic free DMEM, added to the monolayer of cells, and incubated at 37 °C in 5% CO2 for 24 hr. Percentage survival was calculated by comparison to DMSO-treated vehicle controls. Assays were carried out in triplicate.

Enterobactor aerogens = assay: Broth microdilution MIC, Enterobactor aerogens; assay type: cell-based; conditions: Enterobactor aerogens; read-out: MIC
Procedure: as §1

HepG2 = conditions: human, 24 h
Procedure: as §2

[6] = test system: clinical S. aureus isolate BF3; assay: Broth microdilution MIC, clinical S. aureus isolate BF3; assay type: cell-based; conditions: Staphylococcus aureus; BF3; read-out: MIC
Procedure: as §1

[7] = test system: clinical S. aureus isolate BF2; assay: Broth microdilution MIC, clinical S. aureus isolate BF2; assay type: cell-based; conditions: Staphylococcus aureus; BF2; read-out: MIC
Procedure: as §1

MRSA MW2 [8] = assay: Sytox green membrane permeabilization; assay type: cell-based, Staphylococcus aureus; conditions: compounds at 64 µg/mL, monitored over 1 h
Procedure: To determine whether the compounds target bacterial membranes, MRSA MW2 was treated with the compounds and uptake of the membrane-impermeable DNA-binding fluorescent dye Sytox green was monitored over 1 h (Figure 4).
Sytox Green (Life Technologies, Needham, MA, USA) membrane permeabilization assays were performed as previously described. The experiments were carried out in duplicate in 96-well plates. Cells were grown to log phase and were harvested by centrifuging at 3700× g for 5 min. The cells were washed twice with PBS and resuspended to OD600 = 0.2, following which 5 µM Sytox green was added to the cells and the bacteria-dye mixture were incubated in the dark for 30 mins.
Cell suspensions (50 µL) were added to 50 µL of test compounds (64 µg/mL in PBS) and fluorescence intensity was measured (excitation 485 nm, emission 530 nm) periodically over 60 min.

MIC [1]: 2 mg/L (≈ 4.2 µM)
MIC (MRSA MW2 [2]; Staphylococcus aureus, MRSA MW2, 18 h, 37 °C, read-out: MIC): 2 mg/L (≈ 4.2 µM)
MIC (Enterococcus faecium): 2 mg/L (≈ 4.2 µM)
MIC (Acinetobacter baumannii): 32 mg/L (≈ 67.2 µM)
MIC (Pseudomonas aeruginosa): > 64 mg/L
MIC (Klebsiella pneumoniae): > 64 mg/L
MIC [5]: 2 mg/L (≈ 4.2 µM)
MIC (Enterobactor aerogens): > 64 mg/L
MIC [6]: 2 mg/L (≈ 4.2 µM)
MIC [7]: 2 mg/L (≈ 4.2 µM)
SMILES: Cc1cc(I)ccc1Nc1c(C(=O)NOCC2CC2)cc(F)c(F)c1F [PD198306, N-(Cyclopropylmethoxy)-3,4,5-trifluoro-2-[(4-iodo-2-methylphenyl)amino]-benzamide]
MBC (MRSA MW2 [2]): >64 mg/L
MBC (MRSA MW2 [2]; Staphylococcus aureus, read-out: MBC): > 64 mg/L
bactericidal/bacteriostatic classification (MRSA MW2 [3]): bacteriostatic
median post-infection survival [4]: 2 days
Eukaryotic cell cytotoxicity (MKN-28): 16 µg/mL
Eukaryotic cell cytotoxicity (HepG2): 2 µg/mL
cellular fluorescence (Sytox green uptake) (MRSA MW2 [8]): no changes in cellular fluorescence
